Laboratory results from patent US4156724A, “N-acylamino-alpha-arylacetamido cephalosporins and antibacterial compositions and methods containing them” (Sumitomo Chemical Company, Limited, priority 1974, dated 1979).
Converted amounts (≈) assume the structure as drawn. Read-outs that look alike come from different tables or passages of the source.

Tests used:
Type in all cases: cell-based
Proteus vulgaris HX 19 = test: Minimum Inhibitory Concentration, Proteus vulgaris HX 19; settings: HX19; Proteus vulgaris HX 19; read-out: Minimum Inhibitory Concentration
Experimental: (§1) anti-microbial activity tests were carried out on the compounds obtained in the Examples.

[1] = tested on: Staphylococcus aureus FS 289; test: Minimum Inhibitory Concentration, Staphylococcus aureus FS 289
Experimental: as §1
*Staphylococcus aureus FS 289: strain resistant to penicillin

[2] = tested on: Enterobacter aerogeneus No. 75; test: Minimum Inhibitory Concentration, Enterobacter aerogeneus No. 75; settings: Enterobacter aerogeneus No. 75; read-out: Minimum Inhibitory Concentration
Experimental: as §1

[3] = tested on: Staphylococcus aureus 209 P; test: Minimum Inhibitory Concentration, Staphylococcus aureus 209 P; settings: Staphylococcus aureus 209 P; read-out: Minimum Inhibitory Concentration
Experimental: as §1

[4] = tested on: Klebsiella pneumoniae 602; test: Minimum Inhibitory Concentration, Klebsiella pneumoniae 602; settings: Klebsiella pneumoniae, 602, Klebsiella pneumoniae 602; read-out: Minimum Inhibitory Concentration
Experimental: as §1

Escherichia coli NIHJ = test: Minimum Inhibitory Concentration, Escherichia coli NIHJ; settings: read-out: Minimum Inhibitory Concentration
Experimental: as §1

Serratia No. 72 = test: Minimum Inhibitory Concentration, Serratia No. 72
Experimental: as §1

[5] = tested on: Pseudomonas aeruginosa 104; test: Minimum Inhibitory Concentration, Pseudomonas aeruginosa 104; settings: Pseudomonas aeruginosa 104; read-out: Minimum Inhibitory Concentration
Experimental: as §1

[6] = FS289, Staphylococcus aureus FS 289, strain resistant to penicillin, read-out: Minimum Inhibitory Concentration

MIC (Proteus vulgaris HX 19) [µg/mL]	MIC [1, 6] [µg/mL]	MIC [2] [µg/mL]	MIC [3] [µg/mL]	MIC [4] [µg/mL]	MIC (Escherichia coli NIHJ; Escherichia coli NIHJ) [µg/mL]	MIC (Serratia No. 72) [µg/mL]	MIC [5] [µg/mL]	Compound	MIC ([1]; Staphylococcus aureus, FS289, read-out: Minimum Inhibitory Concentration) [µg/mL]	MIC (Escherichia coli NIHJ; Escherichia coli) [µg/mL]
0.2 (≈ 0.3 µM)	6.25 (≈ 9.37 µM)	3.13 (≈ 4.69 µM)	0.78 (≈ 1.17 µM)	3.13 (≈ 4.69 µM)	3.13 (≈ 4.69 µM)	12.5 (≈ 18.7 µM)	3.13 (≈ 4.69 µM)	Nc1cccc(C(NC(=O)c2cnc3cccnc3c2O)C(=O)NC2C(=O)N3C(C(=O)O)=C(CSc4n[nH]c(=O)s4)CSC23)c1 (centres unmarked) [Example 80]	–	–
0.39 (≈ 0.632 µM)	6.25 (≈ 10.1 µM)	12.5 (≈ 20.3 µM)	0.78 (≈ 1.26 µM)	12.5 (≈ 20.3 µM)	6.25 (≈ 10.1 µM)	50 (≈ 81.1 µM)	6.25 (≈ 10.1 µM)	Cn1nnnc1SCC1=C(C(=O)O)N2C(=O)C(NC(=O)C(NC(=O)c3cnccc3O)c3ccc(O)c(F)c3)C2SC1 (centres unmarked) [Example 187]	–	–
0.39 (≈ 0.613 µM)	6.25 (≈ 9.82 µM)	12.5 (≈ 19.6 µM)	0.78 (≈ 1.23 µM)	3.13 (≈ 4.92 µM)	3.13 (≈ 4.92 µM)	50 (≈ 78.5 µM)	6.25 (≈ 9.82 µM)	CC(=O)OCC1=C(C(=O)O)N2C(=O)[C@@H](NC(=O)[C@H](NC(=O)c3cnc4cncnc4c3O)c3cccc(NC(N)=O)c3)[C@H]2SC1 [Example 32]	–	–
0.2 (≈ 0.368 µM)	3.13 (≈ 5.76 µM)	25 (≈ 46 µM)	0.39 (≈ 0.718 µM)	6.25 (≈ 11.5 µM)	12.5 (≈ 23 µM)	> 200	6.25 (≈ 11.5 µM)	CC(=O)OCC1=C(C(=O)O)N2C(=O)C(NC(=O)[C@H](NC(=O)c3ccnnc3O)c3ccc(O)cc3)C2SC1 (some centres unmarked) [Example 116]	–	–
0.39 (≈ 0.616 µM)	6.25 (≈ 9.87 µM)	12.5 (≈ 19.7 µM)	0.39 (≈ 0.616 µM)	6.25 (≈ 9.87 µM)	6.25 (≈ 9.87 µM)	50 (≈ 79 µM)	12.5 (≈ 19.7 µM)	Cn1nnnc1SCC1=C(C(=O)O)N2C(=O)C(NC(=O)C(NC(=O)c3cnccc3O)c3ccc(O)c(Cl)c3)C2SC1 (centres unmarked) [Example 179]	–	–
0.39 (≈ 0.65 µM)	6.25 (≈ 10.4 µM)	12.5 (≈ 20.8 µM)	0.39 (≈ 0.65 µM)	6.25 (≈ 10.4 µM)	6.25 (≈ 10.4 µM)	50 (≈ 83.4 µM)	6.25 (≈ 10.4 µM)	Cn1nnnc1SCC1=C(C(=O)O)N2C(=O)C(NC(=O)[C@H](NC(=O)c3ccnnc3O)c3ccc(O)cc3)C2SC1 (some centres unmarked) [Example 128]	–	–
0.1 (≈ 0.147 µM)	6.25 (≈ 9.18 µM)	3.13 (≈ 4.6 µM)	0.78 (≈ 1.15 µM)	3.13 (≈ 4.6 µM)	3.13 (≈ 4.6 µM)	12.5 (≈ 18.4 µM)	3.13 (≈ 4.6 µM)	Nc1cccc(C(NC(=O)c2cnc3cccnc3c2O)C(=O)NC2C(=O)N3C(C(=O)O)=C(CSc4nnc(CO)s4)CSC23)c1 (centres unmarked) [Example 66]	–	–
0.2 (≈ 0.288 µM)	3.13 (≈ 4.51 µM)	3.13 (≈ 4.51 µM)	0.78 (≈ 1.12 µM)	1.56 (≈ 2.25 µM)	3.13 (≈ 4.51 µM)	12.5 (≈ 18 µM)	3.13 (≈ 4.51 µM)	NC(=O)Nc1ccc([C@@H](NC(=O)c2cnc3cccnc3c2O)C(=O)N[C@@H]2C(=O)N3C(C(=O)O)=C(CSc4nncs4)CS[C@H]23)cc1 [Example 21]	–	–
0.2 (≈ 0.318 µM)	6.25 (≈ 9.93 µM)	12.5 (≈ 19.9 µM)	0.39 (≈ 0.619 µM)	6.25 (≈ 9.93 µM)	6.25 (≈ 9.93 µM)	50 (≈ 79.4 µM)	6.25 (≈ 9.93 µM)	Nc1cccc(C(NC(=O)c2cnccc2O)C(=O)NC2C(=O)N3C(C(=O)O)=C(CSc4nnc(CO)s4)CSC23)c1 (centres unmarked) [Example 69]	–	–
0.2 (≈ 0.328 µM)	6.25 (≈ 10.3 µM)	25 (≈ 41 µM)	0.39 (≈ 0.64 µM)	3.13 (≈ 5.13 µM)	6.25 (≈ 10.3 µM)	100 (≈ 164 µM)	6.25 (≈ 10.3 µM)	Nc1cccc(C(NC(=O)c2cnccc2O)C(=O)NC2C(=O)N3C(C(=O)O)=C(CSc4ccc(O)nn4)CSC23)c1 (centres unmarked) [Example 85]	–	–
0.2 (≈ 0.294 µM)	6.25 (≈ 9.18 µM)	3.13 (≈ 4.6 µM)	0.78 (≈ 1.15 µM)	3.13 (≈ 4.6 µM)	3.13 (≈ 4.6 µM)	12.5 (≈ 18.4 µM)	3.13 (≈ 4.6 µM)	Cc1nnc(SCC2=C(C(=O)O)N3C(=O)C(NC(=O)C(NC(=O)c4cnc5c(O)ccnc5c4O)c4cccc(N)c4)C3SC2)s1 (centres unmarked) [Example 76]	–	–
0.2 (≈ 0.294 µM)	6.25 (≈ 9.19 µM)	6.25 (≈ 9.19 µM)	1.56 (≈ 2.29 µM)	1.56 (≈ 2.29 µM)	3.13 (≈ 4.6 µM)	12.5 (≈ 18.4 µM)	6.25 (≈ 9.19 µM)	Cc1nnc(SCC2=C(C(=O)O)N3C(=O)C(NC(=O)C(NC(=O)c4cnc5cccnc5c4O)c4ccc(CO)cc4)C3SC2)s1 (centres unmarked) [Example 96]	–	–

Compound	MIC (Proteus vulgaris HX 19) [µg/mL]	MIC [1, 6] [µg/mL]	MIC [2] [µg/mL]	MIC [3] [µg/mL]	MIC [4] [µg/mL]	MIC (Escherichia coli NIHJ; Escherichia coli NIHJ) [µg/mL]	MIC (Serratia No. 72) [µg/mL]	MIC [5] [µg/mL]	MIC ([1]; Staphylococcus aureus, FS289, read-out: Minimum Inhibitory Concentration) [µg/mL]	MIC (Escherichia coli NIHJ; Escherichia coli) [µg/mL]
Cc1nnc(SCC2=C(C(=O)O)N3C(=O)[C@@H](NC(=O)Cn4cnnn4)[C@H]3SC2)s1 [CEZ, reference compound]	6.25 (≈ 13.8 µM)	–	100 (≈ 220 µM)	0.2 (≈ 0.44 µM)	0.78 (≈ 1.72 µM)	–	> 200	> 200	1.56 (≈ 3.43 µM)	1.56 (≈ 3.43 µM)
